According to ChEMBL document CHEMBL1909046, “DrugMatrix in vitro pharmacology data”:
*1 amine or outer side, *2 acyl side, *3 side chain or, on linkers, in order; H or OH if unused. Where a SMILES comes first, the peptide text is derived from it. Bridges are numbered along the chain shown (N, C = ends). Roman numbers before positions name the chains, in order. [ ]: non-standard residue; d: D form. Actinocin(1to9) = Cc1c2oc3c(C)ccc(C(=O)[*:2])c3nc-2c(C(=O)[*:1])c(N)c1=O; NMeV = CN[C@H](C(=O)O)C(C)C; Sar = CNCC(=O)O

Tests used:
[1] = DRUGMATRIX: Phosphodiesterase PDE3 enzyme inhibition (substrate: [3H]cAMP + cAMP); assay type: tissue-based, Homo sapiens; settings: platelet; Not Active = under 50% inhibition at 10 µM
[2] = biological target: Vascular endothelial growth factor receptor 1 (Homo sapiens, UniProt P17948); assay type: cell-based; settings: huvec; note: in other assays of this panel Not Active means under 50% inhibition at 10 µM
Sequence of Vascular endothelial growth factor receptor 1 (P17948 whole entry): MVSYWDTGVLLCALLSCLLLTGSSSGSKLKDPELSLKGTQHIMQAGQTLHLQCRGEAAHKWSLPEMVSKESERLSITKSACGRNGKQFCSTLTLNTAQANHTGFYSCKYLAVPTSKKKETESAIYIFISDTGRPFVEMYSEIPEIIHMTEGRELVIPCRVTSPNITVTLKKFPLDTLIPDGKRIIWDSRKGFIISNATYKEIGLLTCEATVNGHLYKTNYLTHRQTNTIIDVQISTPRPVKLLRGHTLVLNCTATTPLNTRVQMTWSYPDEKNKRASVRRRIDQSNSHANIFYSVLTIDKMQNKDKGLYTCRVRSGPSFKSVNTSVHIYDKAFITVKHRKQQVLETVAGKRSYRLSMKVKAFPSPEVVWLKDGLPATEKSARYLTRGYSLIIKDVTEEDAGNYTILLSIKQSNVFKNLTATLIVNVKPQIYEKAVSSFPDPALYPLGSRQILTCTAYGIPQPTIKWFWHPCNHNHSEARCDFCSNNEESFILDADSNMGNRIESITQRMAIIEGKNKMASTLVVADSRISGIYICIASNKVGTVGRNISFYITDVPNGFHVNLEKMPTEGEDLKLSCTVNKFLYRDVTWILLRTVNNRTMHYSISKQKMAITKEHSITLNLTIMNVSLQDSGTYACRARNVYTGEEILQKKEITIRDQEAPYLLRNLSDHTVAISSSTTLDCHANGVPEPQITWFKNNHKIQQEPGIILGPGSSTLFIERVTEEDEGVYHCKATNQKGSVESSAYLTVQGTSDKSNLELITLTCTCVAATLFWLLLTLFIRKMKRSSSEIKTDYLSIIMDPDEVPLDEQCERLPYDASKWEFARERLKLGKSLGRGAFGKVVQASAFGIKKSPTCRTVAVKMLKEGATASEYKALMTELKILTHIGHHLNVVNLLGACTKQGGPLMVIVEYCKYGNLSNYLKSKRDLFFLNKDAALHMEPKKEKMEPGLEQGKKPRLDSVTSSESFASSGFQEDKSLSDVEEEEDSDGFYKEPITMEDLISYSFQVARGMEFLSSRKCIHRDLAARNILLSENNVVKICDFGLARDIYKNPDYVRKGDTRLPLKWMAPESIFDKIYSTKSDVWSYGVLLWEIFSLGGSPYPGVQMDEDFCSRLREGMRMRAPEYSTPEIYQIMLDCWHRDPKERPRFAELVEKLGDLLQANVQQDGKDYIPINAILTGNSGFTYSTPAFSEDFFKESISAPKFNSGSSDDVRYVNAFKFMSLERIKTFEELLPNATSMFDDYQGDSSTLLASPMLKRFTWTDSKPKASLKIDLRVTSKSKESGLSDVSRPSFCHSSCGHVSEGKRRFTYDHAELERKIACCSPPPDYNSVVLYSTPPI

[3] = biological target: Cytochrome P450 2C9 (Homo sapiens, UniProt P11712); settings: bti-tn-5b1-4; note: in other assays of this panel Not Active means under 50% inhibition at 10 µM
Sequence of Cytochrome P450 2C9 (P11712 whole entry): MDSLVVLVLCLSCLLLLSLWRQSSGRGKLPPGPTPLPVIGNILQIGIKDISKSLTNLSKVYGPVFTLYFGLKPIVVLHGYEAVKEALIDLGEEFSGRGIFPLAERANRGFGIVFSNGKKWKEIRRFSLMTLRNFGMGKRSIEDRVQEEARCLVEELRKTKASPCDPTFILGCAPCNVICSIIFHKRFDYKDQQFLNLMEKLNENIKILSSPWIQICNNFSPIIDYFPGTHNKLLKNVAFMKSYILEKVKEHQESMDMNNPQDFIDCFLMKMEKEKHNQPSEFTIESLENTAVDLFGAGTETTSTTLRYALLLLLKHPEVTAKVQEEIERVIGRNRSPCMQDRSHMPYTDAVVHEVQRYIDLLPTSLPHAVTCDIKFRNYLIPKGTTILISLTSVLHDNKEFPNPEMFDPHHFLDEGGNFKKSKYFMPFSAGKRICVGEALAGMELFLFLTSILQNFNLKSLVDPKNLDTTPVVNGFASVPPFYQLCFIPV

[4] = DRUGMATRIX: Sigma2 radioligand binding (ligand: [3H] Ifenprodil); assay type: cell membranes, Rattus norvegicus, Wistar, Brain, Membrane; settings: Not Active = under 50% inhibition at 10 µM
[5] = biological target: Mitogen-activated protein kinase 14 (Homo sapiens, UniProt Q16539); set-up: species or system Escherichia coli;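 note: inhibition of p38alpha enzyme activity in a biochemical kinase assay, with myelin basic protein serving as substrate; in other assays of this panel Not Active means under 50% inhibition at 10 µM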
Sequence of Mitogen-activated protein kinase 14 (Q16539 whole entry): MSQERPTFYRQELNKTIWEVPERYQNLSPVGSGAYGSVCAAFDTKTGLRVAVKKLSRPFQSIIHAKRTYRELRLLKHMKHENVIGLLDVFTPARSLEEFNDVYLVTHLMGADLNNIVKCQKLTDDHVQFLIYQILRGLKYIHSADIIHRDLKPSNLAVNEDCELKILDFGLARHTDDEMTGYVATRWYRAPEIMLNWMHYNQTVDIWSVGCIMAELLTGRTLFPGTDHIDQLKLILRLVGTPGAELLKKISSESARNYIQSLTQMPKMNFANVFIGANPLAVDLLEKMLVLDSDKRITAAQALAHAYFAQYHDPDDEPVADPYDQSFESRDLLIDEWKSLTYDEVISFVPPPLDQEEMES

[6] = biological target: Substance-P receptor (Homo sapiens, UniProt P25103); assay type: cell membranes, CHO, Membrane; settings: cho; note: in other assays of this panel Not Active means under 50% inhibition at 10 µM
Sequence of Substance-P receptor (P25103 whole entry): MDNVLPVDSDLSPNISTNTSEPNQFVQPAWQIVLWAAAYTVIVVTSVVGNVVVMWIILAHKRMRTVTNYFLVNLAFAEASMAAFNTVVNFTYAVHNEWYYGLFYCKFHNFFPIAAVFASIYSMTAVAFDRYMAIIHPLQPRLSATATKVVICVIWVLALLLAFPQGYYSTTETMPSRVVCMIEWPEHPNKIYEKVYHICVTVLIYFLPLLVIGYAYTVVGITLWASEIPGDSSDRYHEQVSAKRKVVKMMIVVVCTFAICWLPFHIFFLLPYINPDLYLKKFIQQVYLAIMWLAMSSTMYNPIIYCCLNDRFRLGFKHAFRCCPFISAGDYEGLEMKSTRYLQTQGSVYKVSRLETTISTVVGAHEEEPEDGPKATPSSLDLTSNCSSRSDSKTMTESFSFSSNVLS

[7] = biological target: T1, Endothelin-1 receptor (Homo sapiens, UniProt P25101); assay type: cell membranes, CHO-K1, Membrane; settings: cho-k1; note: in other assays of this panel Not Active means under 50% inhibition at 10 µM
T1 sequence (P25101 whole entry): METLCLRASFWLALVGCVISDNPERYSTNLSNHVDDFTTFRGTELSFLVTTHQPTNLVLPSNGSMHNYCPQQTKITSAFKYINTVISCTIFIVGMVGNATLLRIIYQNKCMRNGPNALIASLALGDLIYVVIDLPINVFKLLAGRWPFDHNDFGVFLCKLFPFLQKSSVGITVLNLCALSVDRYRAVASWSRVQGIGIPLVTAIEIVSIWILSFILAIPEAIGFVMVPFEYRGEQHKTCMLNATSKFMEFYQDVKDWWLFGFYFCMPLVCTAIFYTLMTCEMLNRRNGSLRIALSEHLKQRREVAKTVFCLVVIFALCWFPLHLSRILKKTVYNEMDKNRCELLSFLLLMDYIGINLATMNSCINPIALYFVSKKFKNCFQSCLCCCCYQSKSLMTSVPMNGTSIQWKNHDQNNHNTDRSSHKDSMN

[8] = biological target: Acetylcholinesterase (Homo sapiens, UniProt P22303); experiment: DRUGMATRIX: Acetylcholinesterase enzyme inhibition (substrate: acetylthiocholine); assay type: cell-based, HEK293; settings: hek293; Not Active = under 50% inhibition at 10 µM
Sequence of Acetylcholinesterase (P22303 whole entry): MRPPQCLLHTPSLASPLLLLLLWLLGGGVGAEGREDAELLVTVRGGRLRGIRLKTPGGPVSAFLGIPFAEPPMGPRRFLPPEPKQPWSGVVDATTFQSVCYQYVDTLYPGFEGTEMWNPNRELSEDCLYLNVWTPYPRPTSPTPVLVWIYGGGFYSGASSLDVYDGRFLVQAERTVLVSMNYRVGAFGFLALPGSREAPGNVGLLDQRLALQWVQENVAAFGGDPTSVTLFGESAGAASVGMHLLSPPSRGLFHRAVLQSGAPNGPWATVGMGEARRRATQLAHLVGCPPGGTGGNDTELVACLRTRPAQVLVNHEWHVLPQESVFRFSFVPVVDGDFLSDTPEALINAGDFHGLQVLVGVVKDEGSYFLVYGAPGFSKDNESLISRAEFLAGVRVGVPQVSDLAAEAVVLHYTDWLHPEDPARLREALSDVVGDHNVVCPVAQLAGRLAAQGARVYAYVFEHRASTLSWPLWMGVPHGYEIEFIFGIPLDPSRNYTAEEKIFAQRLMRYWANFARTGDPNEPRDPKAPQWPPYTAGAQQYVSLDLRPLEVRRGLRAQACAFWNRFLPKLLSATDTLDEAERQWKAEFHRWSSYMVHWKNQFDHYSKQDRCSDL

C[C@H](CS)C(=O)N1CCC[C@H]1C(=O)O [CAPTOPRIL]
Not Active: IC50 [1] | Ki [1] | IC50 [2] | IC50 [3] | Ki [3] | IC50 [4] | Ki [4] | IC50 [5] | IC50 [6] | IC50 [7] | IC50 [8]

Cc1ccc(-c2cc(C(F)(F)F)nn2-c2ccc(S(N)(=O)=O)cc2)cc1 [CELECOXIB]
Not Active: IC50 [1] | Ki [1] | IC50 [2] | IC50 [3] | Ki [3] | IC50 [4] | Ki [4] | IC50 [5] | IC50 [6] | IC50 [7] | IC50 [8]

O=C(O)CCCc1ccc(N(CCCl)CCCl)cc1 [CHLORAMBUCIL]
Not Active: IC50 [1] | Ki [1] | IC50 [2] | IC50 [3] | Ki [3] | IC50 [4] | Ki [4] | IC50 [5] | IC50 [6] | IC50 [7] | IC50 [8]

C[C@H](CCC(=O)O)[C@H]1CC[C@H]2[C@@H]3[C@H](O)C[C@@H]4C[C@H](O)CC[C@]4(C)[C@H]3C[C@H](O)[C@]12C [CHOLIC ACID]
Not Active: IC50 [1] | Ki [1] | IC50 [2] | IC50 [3] | Ki [3] | IC50 [4] | Ki [4] | IC50 [5] | IC50 [6] | IC50 [7] | IC50 [8]

Cc1cc(C2CCCCC2)n(O)c(=O)c1 [CICLOPIROX]
Not Active: IC50 [1] | Ki [1] | IC50 [2] | IC50 [3] | Ki [3] | IC50 [4] | Ki [4] | IC50 [5] | IC50 [6] | IC50 [7] | IC50 [8]

CC1=C2C(=CO[C@H](C)[C@H]2C)C(O)=C(C(=O)O)C1=O [CITRININ]
Not Active: IC50 [1] | Ki [1] | IC50 [2] | IC50 [3] | Ki [3] | IC50 [4] | Ki [4] | IC50 [5] | IC50 [6] | IC50 [7] | IC50 [8]

CC(C)(C)NCC(O)c1cc(Cl)c(N)c(Cl)c1 (stereo unspecified) [CLENBUTEROL]
Not Active: IC50 [1] | Ki [1] | IC50 [2] | IC50 [3] | Ki [3] | IC50 [4] | Ki [4] | IC50 [5] | IC50 [6] | IC50 [7] | IC50 [8]

Clc1cccc(Cl)c1NC1=NCCN1 [CLONIDINE]
Not Active: IC50 [1] | Ki [1] | IC50 [2] | IC50 [3] | Ki [3] | IC50 [4] | Ki [4] | IC50 [5] | IC50 [6] | IC50 [7] | IC50 [8]

CC1CC(OC(=O)C(O)c2ccccc2)CC(C)(C)C1 (stereo unspecified) [CYCLANDELATE]
Not Active: IC50 [1] | Ki [1] | IC50 [2] | IC50 [3] | Ki [3] | IC50 [4] | Ki [4] | IC50 [5] | IC50 [6] | IC50 [7] | IC50 [8]

Cc1c2oc3c(C)ccc(C(=O)N[C@@H]4C(=O)N[C@H](C(C)C)C(=O)N5CCC[C@H]5C(=O)N(C)CC(=O)N(C)[C@@H](C(C)C)C(=O)O[C@@H]4C)c3nc-2c(C(=O)N[C@@H]2C(=O)N[C@H](C(C)C)C(=O)N3CCC[C@H]3C(=O)N(C)CC(=O)N(C)[C@@H](C(C)C)C(=O)O[C@@H]2C)c(N)c1=O [DACTINOMYCIN] (I: T[dV]P[Sar][NMeV] / II: T[dV]P[Sar][NMeV]; ester I:1-I:C, II:1-II:C; linker I:N-II:N via Actinocin(1to9))
Not Active: IC50 [1] | Ki [1] | IC50 [2] | IC50 [3] | Ki [3] | IC50 [4] | Ki [4] | IC50 [5] | IC50 [6] | IC50 [7] | IC50 [8]

Cc1c(O)c(=O)ccn1C [DEFERIPRONE]
Not Active: IC50 [1] | Ki [1] | IC50 [2] | IC50 [3] | Ki [3] | IC50 [4] | Ki [4] | IC50 [5] | IC50 [6] | IC50 [7] | IC50 [8]

CNCCCN1c2ccccc2CCc2ccccc21 [DESIPRAMINE]
Not Active: IC50 [1] | Ki [1] | IC50 [2] | IC50 [3] | Ki [3] | IC50 [4] | Ki [4] | IC50 [5] | IC50 [6] | IC50 [7] | IC50 [8]

C[C@H]1O[C@@H](O[C@H]2[C@@H](O)C[C@H](O[C@H]3[C@@H](O)C[C@H](O[C@H]4CC[C@@]5(C)[C@H](CC[C@@H]6[C@@H]5C[C@@H](O)[C@]5(C)[C@@H](C7=CC(=O)OC7)CC[C@]65O)C4)O[C@@H]3C)O[C@@H]2C)C[C@H](O)[C@@H]1O [DIGOXIN]
Not Active: IC50 [1] | Ki [1] | IC50 [2] | IC50 [3] | Ki [3] | IC50 [4] | Ki [4] | IC50 [5] | IC50 [6] | IC50 [7] | IC50 [8]

CC(=O)O[C@@]12CO[C@@H]1C[C@H](O)[C@@]1(C)C(=O)[C@H](O)C3=C(C)[C@@H](OC(=O)[C@H](O)[C@@H](NC(=O)OC(C)(C)C)c4ccccc4)C[C@@](O)([C@@H](OC(=O)c4ccccc4)[C@H]21)C3(C)C.O.O.O [DOCETAXEL]
Not Active: IC50 [1] | Ki [1] | IC50 [2] | IC50 [3] | Ki [3] | IC50 [4] | Ki [4] | IC50 [5] | IC50 [6] | IC50 [7] | IC50 [8]

COc1cc2nc(N3CCN(C(=O)C4COc5ccccc5O4)CC3)nc(N)c2cc1OC (stereo unspecified) [DOXAZOSIN]
Not Active: IC50 [1] | Ki [1] | IC50 [2] | IC50 [3] | Ki [3] | IC50 [4] | Ki [4] | IC50 [5] | IC50 [6] | IC50 [7] | IC50 [8]

C[C@H]1c2cccc(O)c2C(=O)C2=C(O)[C@]3(O)C(=O)C(C(N)=O)=C(O)[C@@H](N(C)C)[C@@H]3[C@@H](O)[C@@H]21.O [DOXYCYCLINE]
Not Active: IC50 [1] | Ki [1] | IC50 [2] | IC50 [3] | Ki [3] | IC50 [4] | Ki [4] | IC50 [5] | IC50 [6] | IC50 [7] | IC50 [8]
